Reference: patent US9884063B2, “Amido-substituted azole compounds” (Bayer Pharma Aktiengesellschaft, priority 2014, dated 2018)
pIC50: −log10 of the molar value. Structures can show the parent of a compound that is named as a salt.

Experiments:
[1] = tested on: wildtype Wnt signaling cascade; assay: HEK293 TOP Assay (Super TopFlash luciferase reporter, Wnt-3a stimulated); format: cell-based; conditions: Homo sapiens, HEK293 TOP reporter cell line, Wnt-3a at EC50, 16 hours incubation, compound dilution series 50 μM to 15 nM
Method in brief: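 Compounds (50 μM down to 15 nM, 3.16-fold steps, in CAFTY buffer pH 7.4, 2 mM Ca2+, 0.01% BSA) tested in parallel on TOP and FOP HEK293 reporter lines to define selective wildtype Wnt inhibition. Pathway driven by recombinant human Wnt-3a applied at 2500–5 ng/ml in two-fold dilutions.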

TNKS2 = target: T1, TNKS2 (Homo sapiens, UniProt Q9H2K2); assay: Modified TNKS2 Assay 3 (BPS kit #80578, biotin-NAD+, 96 well); format: biochemical; conditions: human TNKS2, BPS kit #80578, 96 well
T1 sequence (Q9H2K2 1-1166): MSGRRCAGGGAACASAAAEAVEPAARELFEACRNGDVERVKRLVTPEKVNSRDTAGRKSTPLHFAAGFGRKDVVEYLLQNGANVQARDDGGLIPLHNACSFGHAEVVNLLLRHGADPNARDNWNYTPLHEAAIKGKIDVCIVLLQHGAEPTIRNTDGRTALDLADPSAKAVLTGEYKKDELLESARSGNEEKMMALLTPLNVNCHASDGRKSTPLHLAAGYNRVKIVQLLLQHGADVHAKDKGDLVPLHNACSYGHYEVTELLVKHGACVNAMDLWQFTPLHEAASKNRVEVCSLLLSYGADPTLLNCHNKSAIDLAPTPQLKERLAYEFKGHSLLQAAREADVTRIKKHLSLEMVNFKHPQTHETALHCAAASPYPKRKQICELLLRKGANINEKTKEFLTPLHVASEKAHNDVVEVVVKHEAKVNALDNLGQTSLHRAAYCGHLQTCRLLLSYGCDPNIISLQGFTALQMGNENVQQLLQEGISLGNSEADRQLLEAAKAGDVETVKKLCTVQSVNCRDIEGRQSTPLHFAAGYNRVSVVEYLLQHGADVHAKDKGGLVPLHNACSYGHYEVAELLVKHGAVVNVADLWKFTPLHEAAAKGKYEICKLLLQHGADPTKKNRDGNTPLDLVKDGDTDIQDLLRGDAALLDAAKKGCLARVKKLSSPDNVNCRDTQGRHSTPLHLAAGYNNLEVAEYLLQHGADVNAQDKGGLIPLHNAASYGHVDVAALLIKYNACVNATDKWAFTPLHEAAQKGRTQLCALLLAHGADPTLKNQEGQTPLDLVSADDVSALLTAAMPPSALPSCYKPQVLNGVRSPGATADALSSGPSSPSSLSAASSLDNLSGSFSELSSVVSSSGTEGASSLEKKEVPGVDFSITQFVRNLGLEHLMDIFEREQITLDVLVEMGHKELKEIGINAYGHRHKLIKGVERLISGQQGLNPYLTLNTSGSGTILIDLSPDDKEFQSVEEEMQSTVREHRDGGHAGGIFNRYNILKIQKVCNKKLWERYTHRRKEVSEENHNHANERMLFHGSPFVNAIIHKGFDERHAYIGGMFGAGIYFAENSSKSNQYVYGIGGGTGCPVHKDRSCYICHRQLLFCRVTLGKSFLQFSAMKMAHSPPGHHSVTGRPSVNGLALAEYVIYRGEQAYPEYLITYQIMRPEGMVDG
Method in brief: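 Commercial kit assay measuring TNKS2-catalysed incorporation of biotin-labelled NAD+ into a protein substrate, detected by streptavidin-HRP chemiluminescence. Run per manufacturer's protocol; IC50 is the concentration halving the normalised signal.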

SMILES | pIC50 [1] | pIC50 (TNKS2) | pIC50 ([1]; HEK293, 16 h)
O=C(Nc1ccc(NC(=O)c2nc[nH]c2C(=O)NCC2CCCN2)cc1)c1ccc(F)cc1Cl (stereo not shown) [Example 284, N^4-{4-[(2-chloro-4-fluorobenzoyl)amino]phenyl}-N^5-(pyrrolidin-2-ylmethyl)-1H-imidazole-4,5-dicarboxamide hydrochloride salt] | 6.17 | 8.00 | –
CC(C)(N)CCNC(=O)c1[nH]cnc1C(=O)Nc1ccc(NC(=O)c2ccc(F)cc2Cl)cc1 [Example 286, N^5-(3-amino-3-methylbutyl)-N^4-{4-[(2-chloro-4-fluorobenzoyl)amino]phenyl}-1H-imidazole-4,5-dicarboxamide] | – | 8.00 | 6.34
CNCCNC(=O)c1[nH]cnc1C(=O)Nc1ccc(NC(=O)c2ccc(F)cc2Cl)cc1 [Example 287, N^4-{4-[(2-chloro-4-fluorobenzoyl)amino]phenyl}-N^5-[2-(methylamino)ethyl]-1H-imidazole-4,5-dicarboxamide] | – | 7.70 | 6.12
CC(C)NCCNC(=O)c1[nH]cnc1C(=O)Nc1ccc(NC(=O)c2ccc(F)cc2Cl)cc1 [Example 288, N^4-{4-[(2-chloro-4-fluorobenzoyl)amino]phenyl}-N^5-[2-(isopropylamino)ethyl]-1H-imidazole-4,5-dicarboxamide] | – | 8.52 | 6.00
CNC(=O)c1nc[nH]c1C(=O)Nc1ccc(NC(=O)c2cccc(C)c2Cl)cc1 [Example 346, N^5-{4-[(2-chloro-3-methylbenzoyl)amino]phenyl}-N^4-methyl-1H-imidazole-4,5-dicarboxamide] | – | < 6.30 | 6.05
CNC(=O)c1nc[nH]c1C(=O)Nc1ccc(NC(=O)c2ccc(C#N)cc2F)cc1 [Example 369, N^5-{4-[(4-cyano-2-fluorobenzoyl)amino]phenyl}-N^4-methyl-1H-imidazole-4,5-dicarboxamide] | – | 7.40 | 6.12
CCN1CCCC1CNC(=O)c1nc[nH]c1C(=O)Nc1ccc(NC(=O)c2ccc(F)cc2Cl)cc1 (stereo not shown) [Example 390, N^5-{4-[(2-chloro-4-fluorobenzoyl)amino]phenyl}-N^4-[(1-ethylpyrrolidin-2-yl)methyl]-1H-imidazole-4,5-dicarboxamide] | – | 8.52 | 6.60
CN1CCN(CCCNC(=O)c2nc[nH]c2C(=O)Nc2ccc(NC(=O)c3ccc(F)cc3Cl)cc2)CC1 [Example 392, N^5-{4-[(2-chloro-4-fluorobenzoyl)amino]phenyl}-N^4-[3-(4-methylpiperazin-1-yl)propyl]-1H-imidazole-4,5-dicarboxamide] | – | 8.15 | 6.80
CC1CCN(CCCNC(=O)c2nc[nH]c2C(=O)Nc2ccc(NC(=O)c3ccc(F)cc3Cl)cc2)CC1 [Example 400, N^5-{4-[(2-chloro-4-fluorobenzoyl)amino]phenyl}-N^4-[3-(4-methylpiperidin-1-yl)propyl]-1H-imidazole-4,5-dicarboxamide] | – | 7.70 | 6.44
CCN1CCC[C@H]1CNC(=O)c1nc[nH]c1C(=O)Nc1ccc(NC(=O)c2ccc(F)cc2Cl)cc1 [Example 404, N^5-{4-[(2-chloro-4-fluorobenzoyl)amino]phenyl}-N^4-{[(2S)-1-ethylpyrrolidin-2-yl]methyl}-1H-imidazole-4,5-dicarboxamide] | – | 9.15 | 7.05
CN1CCC(CNC(=O)c2nc[nH]c2C(=O)Nc2ccc(NC(=O)c3ccc(F)cc3Cl)cc2)C1 (stereo not shown) [Example 407, N^5-{4-[(2-chloro-4-fluorobenzoyl)amino]phenyl}-N^4-[(1-methylpyrrolidin-3-yl)methyl]-1H-imidazole-4,5-dicarboxamide] | – | 8.10 | 6.64
